Source: ChEMBL document CHEMBL5331122, “Structure-Activity Relationship Study of Antimicrobial Peptide PE2 Delivered Novel Linear Derivatives with Potential of Eradicating Biofilms and Low Incidence of Drug Resistance” (J Med Chem, 2023)
Converted amounts (≈) assume the structure as drawn. The source made the active and inactive calls. No cut-off for these calls is given here.

Columns and labels:
Escherichia coli [1] = experiment: Antibacterial activity against Escherichia coli ATCC 25922 assessed as bacterial growth inhibition incubated for 18 hrs by broth microdilution method; type: functional
Klebsiella pneumoniae [2] = experiment: Antibacterial activity against Klebsiella pneumoniae ATCC 700603 assessed as bacterial growth inhibition incubated for 18 hrs by broth microdilution method; type: functional
Erythrocyte = experiment: Hemolytic activity in mouse red blood cell assessed as hemolysis incubated for 1 hr; type: toxicity, cell-based; conditions: dose 4-256 µg/ml
Staphylococcus aureus [3] = experiment: Antimicrobial activity against methicillin-resistant Staphylococcus aureus ATCC 33591 assessed as inhibition of microbial growth incubated for 18 hrs by broth microdilution analysis; type: functional, organism-based; conditions: ATCC 33591, 18 h
[4] = Cytotoxicity against human HEK293T cells assessed as inhibition of cell growth incubated for 24 hrs by resazurin dye based analysis; type: toxicity, HEK-293T
Escherichia coli [5] = experiment: Antibacterial activity against Escherichia coli ATCC 25922 assessed as fold increase in MIC in presence of NaCl; type: functional
Escherichia coli [6] = experiment: Antibacterial activity against Escherichia coli ATCC 25922 assessed as fold increase in MIC in presence of MgCl2; type: functional
Escherichia coli [7] = experiment: Antibacterial activity against Escherichia coli ATCC 25922 assessed as fold increase in MIC in presence of FeCl3; type: functional
Staphylococcus aureus [8] = experiment: Antibacterial activity against Staphylococcus aureus ATCC 25923 assessed as fold increase in MIC in presence of KCl; type: functional
Staphylococcus aureus [9] = experiment: Antibacterial activity against Staphylococcus aureus ATCC 25923 assessed as fold increase in MIC in presence of MgCl2; type: functional
Escherichia coli [10] = experiment: Antimicrobial activity against Escherichia coli ATCC 25922 assessed as reduction in survival bacterial growth in presence of chymotrypsin measured after 6 hrs; type: functional, organism-based
Escherichia coli [11] = experiment: Inhibition of biofilm formation in Escherichia coli ATCC 25922 assessed as inhibition of biofilm formation at 1/2 times MIC incubated for 24 hrs by crystal violet staining based analysis; type: functional, organism-based
Escherichia coli [12] = experiment: Inhibition of biofilm formation in Escherichia coli ATCC 25922 assessed as inhibition of biofilm formation at 1 to 2 times MIC incubated for 24 hrs by crystal violet staining based analysis; type: functional, organism-based
Escherichia coli [13] = experiment: Antibiofilm activity against Escherichia coli ATCC 25922 assessed as biofilm eradication at 2 times MIC incubated for 24 hrs; type: functional, organism-based
Escherichia coli [14] = experiment: Induction of drug resistance against Escherichia coli ATCC 25922 assessed as fold increase in MIC measured upto 15 passages by sequential passaging method; type: functional
Escherichia coli [15] = experiment: Antibacterial activity against gentamycin-resistant Escherichia coli ATCC 25922 assessed as reduction in bacterial growth incubated for 18 hrs by broth microdilution method; type: functional
Staphylococcus aureus [16] = experiment: Antibacterial activity against gentamycin-resistant Staphylococcus aureus ATCC 25923 assessed as reduction in bacterial growth incubated for 18 hrs by broth microdilution method; type: functional
Escherichia coli [17] = experiment: Antibacterial activity against rifampicin-resistant Escherichia coli ATCC 25922 assessed as reduction in bacterial growth incubated for 18 hrs by broth microdilution method; type: functional
Staphylococcus aureus [18] = experiment: Antibacterial activity against rifampicin-resistant Staphylococcus aureus ATCC 25923 assessed as reduction in bacterial growth incubated for 18 hrs by broth microdilution method; type: functional
Escherichia coli [19] = experiment: Additive antibacterial activity against gentamycin-resistant Escherichia coli ATCC 25922 incubated for 18 hrs by checkerboard assay; type: functional, organism-based
Escherichia coli [20] = experiment: Additive antibacterial activity against rifampicin-resistant Escherichia coli ATCC 25922 incubated for 18 hrs by checkerboard assay; type: functional, organism-based
Staphylococcus aureus [21] = experiment: Additive antibacterial activity against gentamycin-resistant Staphylococcus aureus ATCC 25923 incubated for 18 hrs in presence of gentamycin by checkerboard assay; type: functional, organism-based
Escherichia coli [22] = experiment: Bactericidal activity against Escherichia coli ATCC 25922 assessed as inhibition of bacterial growth at 1 times MIC measured at 180 mins by time-kill assay; type: functional, organism-based
Staphylococcus aureus [23] = experiment: Bactericidal activity against Staphylococcus aureus ATCC 25923 assessed as inhibition of bacterial growth incubated upto 360 mins by time-kill assay; type: functional, organism-based
Escherichia coli [24] = experiment: Bactericidal activity against Escherichia coli ATCC 25922 assessed as inhibition of bacterial growth at 0.5 to 2 times MIC measured at 120 mins by time-kill assay; type: functional, organism-based
Staphylococcus aureus [25] = experiment: Bactericidal activity against Staphylococcus aureus ATCC 25923 assessed as inhibition of bacterial growth at 1/2 times MIC measured upto 360 mins by time-kill assay; type: functional, organism-based
Escherichia coli [26] = experiment: Antimicrobial activity against Escherichia coli ATCC 25922 assessed as reduction in microbial growth measured for 18 hrs in presence of 64 microg/ml LPS; type: functional, organism-based
Cell membrane [27] = experiment: Induction of outer membrane permeabilization in Escherichia coli ATCC 25922 assessed as increase in fluorescence intensity at 1 to 4 times MIC measured for 12 hrs by NPN uptake assay; type: subcellular
Cell membrane [28] = experiment: Induction of outer membrane permeabilization in Escherichia coli ATCC 25922 assessed as increase in fluorescence intensity at 4 times MIC measured for 12 hrs by NPN uptake assay; type: subcellular
Cell membrane [29] = experiment: Induction of cell membrane damage in Staphylococcus aureus ATCC 25923 at 2 times MIC after 0.5 to 2 hrs by propidium iodide staining based flow cytometer assay; type: subcellular; conditions: time 0.5-2 hrs
Staphylococcus aureus [30] = experiment: Induction of membrane morphological changes in Staphylococcus aureus ATCC 25923 assessed as appearance of broken bacterial cells at 4 times MIC measured at 0.5 to 2 hrs by SEM analysis; type: functional, organism-based; conditions: time 0.5-2 hrs
Klebsiella pneumoniae [31] = experiment: Antibacterial activity against Klebsiella pneumoniae ATCC 700603 infected in BALB/c mouse pneumonia model at 5 to 10 mg/kg, ip measured at 4 to 12 hrs; type: functional, organism-based; conditions: dose 5-10 mg/kg, time 4-12 hrs
Klebsiella pneumoniae [32] = experiment: Antibacterial activity against Klebsiella pneumoniae ATCC 700603 infected in BALB/c mouse pneumonia model assessed as reduction in infiltration of inflammatory cells at 5 to 10 mg/kg, ip measured at 4 to 12 hrs by hematoxylin and eosin staining based analysis; type: functional, organism-based; conditions: dose 5-10 mg/kg, time 4-12 hrs
Klebsiella pneumoniae [33] = experiment: Antibacterial activity against Klebsiella pneumoniae ATCC 700603 infected in BALB/c mouse pneumonia model assessed as alveolar expansion at 5 to 10 mg/kg, ip measured at 4 to 12 hrs by hematoxylin and eosin staining based analysis; type: functional, organism-based; conditions: dose 5-10 mg/kg, time 4-12 hrs
[34] = Acute toxicity in Kunming mouse assessed as survival rate at 20 mg/kg, ip measured for 7 days; type: organism-based; conditions: in vivo, 168 h, time 7 day
[35] = Acute toxicity in ip dosed Kunming mouse assessed as lethal dose measured upto 7 days; type: organism-based; conditions: in vivo, time < 7 day; for LD50 at 168 h: Kunming
Escherichia coli [36] = experiment: Additive antibacterial activity against Escherichia coli ATCC 25922 assessed as bacterial growth inhibition incubated for 18 hrs in presence of gentamycin by checkerboard assay; type: functional, organism-based
Staphylococcus aureus [37] = experiment: Additive antibacterial activity against Staphylococcus aureus ATCC 25923 assessed as bacterial growth inhibition incubated for 18 hrs in presence of gentamycin by checkerboard assay; type: functional, organism-based
Staphylococcus aureus [38] = experiment: Additive antibacterial activity against Staphylococcus aureus ATCC 25923 assessed as bacterial growth inhibition incubated for 18 hrs in presence of rifampicin by checkerboard assay; type: functional, organism-based
Staphylococcus aureus [39] = experiment: Bactericidal activity against Staphylococcus aureus ATCC 25923 assessed as inhibition of bacterial growth at 0.5 to 2 times MIC measured at 120 mins by time-kill assay; type: functional, organism-based

| SMILES | MIC (Escherichia coli [1]) | MIC (Klebsiella pneumoniae [2]) | HC10 (Erythrocyte) | IC50 at 24 h [4] | fold change (FC) (Escherichia coli [5]) | fold change (FC) (Escherichia coli [6]) | fold change (FC) (Escherichia coli [7]) | fold change (FC) (Staphylococcus aureus [8]) | fold change (FC) (Staphylococcus aureus [9]) | Activity (Escherichia coli [10]) | inhibition (Escherichia coli [11]) | inhibition (Escherichia coli [12]) | Activity (Escherichia coli [13]) | fold change (FC) (Escherichia coli [14]) | Activity (Staphylococcus aureus [23]) | Activity (Staphylococcus aureus [25]) | Activity (Cell membrane [27]) | Activity (Cell membrane [28]) | Activity (Cell membrane [29]) | Activity (Staphylococcus aureus [30]) | other results |
| --- | --- | --- | --- | --- | --- | --- | --- | --- | --- | --- | --- | --- | --- | --- | --- | --- | --- | --- | --- | --- | --- |
| CCCCCCC(=O)N[C@@H](CCN)C(=O)N[C@H](C(=O)N[C@@H](CCN)C(=O)N[C@H](Cc1ccccc1)C(=O)N[C@@H](CC(C)C)C(=O)N[C@@H](CCN)C(=O)N[C@@H](C(=O)N[C@@H](CC(C)C)C(=O)N[C@@H](Cc1ccc(O)cc1)C(N)=O)C(C)C)[C@@H](C)CC | 8 µg/mL (≈ 6.79 µM) | 8 µg/mL (≈ 6.79 µM) | 512 µg/mL | 32.5 µg/mL (≈ 27.6 µM) | <=2 | <=2 | <=2 | <=2 | <=2 | Active | Active | Active | Active | 64 | Dose-Dependent Effect | inactive | Active | Active | Active | Active | EC50 (Staphylococcus aureus [3]): 4.65 µg/mL; MIC (Escherichia coli [15]): 4 µg/mL (≈ 3.39 µM); MIC (Staphylococcus aureus [16]): 8 µg/mL (≈ 6.79 µM); MIC (Escherichia coli [17]): < 8 µg/mL; MIC (Staphylococcus aureus [18]): < 8 µg/mL; Activity (Escherichia coli [19]): Active; Activity (Escherichia coli [20]): Active; Activity (Staphylococcus aureus [21]): Active; Activity (Escherichia coli [22]): Active; Activity (Escherichia coli [24]): Active; Activity (Escherichia coli [26]): Active; Activity (Klebsiella pneumoniae [31]): Active; Activity (Klebsiella pneumoniae [32]): Active; Activity (Klebsiella pneumoniae [33]): Active; Activity [34]: Non-Toxic; LD50 at 168 h [35]: 32 mg/kg |
| CC[C@H](C)[C@@H]1NC(=O)[C@H](CCN)NC(=O)C[C@@H](C(C)C)OC(=O)[C@H]([C@@H](C)O)NC(=O)[C@H](CC(C)C)NC(=O)[C@@H](C(C)C)NC(=O)[C@H](CCN)NC(=O)[C@H](CC(C)C)NC(=O)[C@@H](Cc2ccccc2)NC(=O)[C@H](CCN)NC1=O | 8 µg/mL (≈ 7.26 µM) | 4 µg/mL (≈ 3.63 µM) |  | 29.2 µg/mL (≈ 26.5 µM) | <=2 | <=2 | <=2 | <=2 | <=2 | Active | Active | Active | Active | 64 | Dose-Dependent Effect | inactive | Active | Active | Active | Active | Activity (Escherichia coli [36]): Active; Activity (Staphylococcus aureus [37]): Active; Activity (Staphylococcus aureus [38]): Active; Activity (Staphylococcus aureus [21]): Active; Activity (Staphylococcus aureus [39]): Active; Activity (Escherichia coli [26]): Active |
| CCCCCCCC(=O)N[C@@H](CCN)C(=O)N[C@H](C(=O)N[C@@H](CCN)C(=O)N[C@H](Cc1ccccc1)C(=O)N[C@@H](CC(C)C)C(=O)N[C@@H](CCN)C(=O)N[C@@H](C(=O)N[C@@H](CC(C)C)C(=O)N[C@@H](Cc1ccc(O)cc1)C(N)=O)C(C)C)[C@@H](C)CC | 4 µg/mL (≈ 3.35 µM) | 8 µg/mL (≈ 6.71 µM) | 128 µg/mL | 24.2 µg/mL (≈ 20.3 µM) | <=2 | <=2 | <=2 | <=2 | <=2 | Active | inactive | Active | Active | 64 | Dose-Dependent Effect | inactive | Active | Active | Active | Active | EC50 (Staphylococcus aureus [3]): 2.99 µg/mL; MIC (Escherichia coli [15]): 2 µg/mL (≈ 1.68 µM); MIC (Staphylococcus aureus [16]): 8 µg/mL (≈ 6.71 µM); MIC (Escherichia coli [17]): < 8 µg/mL; MIC (Staphylococcus aureus [18]): < 8 µg/mL; Activity (Escherichia coli [36]): Active; Activity (Staphylococcus aureus [37]): Active; Activity (Staphylococcus aureus [38]): Active; Activity (Escherichia coli [19]): Active; Activity (Escherichia coli [20]): Active; Activity (Escherichia coli [22]): Active; Activity (Escherichia coli [24]): Active; Activity (Staphylococcus aureus [39]): Active; Activity (Klebsiella pneumoniae [31]): Active; Activity (Klebsiella pneumoniae [32]): Active; Activity (Klebsiella pneumoniae [33]): Active; Activity [34]: Non-Toxic; LD50 at 168 h [35]: 33.6 mg/kg; LD ([35]; ip, 168 h): 80 mg/kg |
